Reference: a compilation of properties of binary mixtures (doi:10.1016/j.molliq.2011.08.008)

Experiment: xn = mol fraction of the nth substance listed
Conditions: 100 kPa

CCOCCOCCOCCO + CCCC[n+]1ccn(C)c1.F[P-](F)(F)(F)(F)F
speed of sound [m/s]
Conditions | x2 = 0.0558 | x2 = 0.1123 | x2 = 0.2121 | x2 = 0.3079 | x2 = 0.4014 | x2 = 0.5002 | x2 = 0.6006 | x2 = 0.7035 | x2 = 0.8015 | x2 = 0.9075
288.15 K | – | 1474.2 | – | 1486.2 | 1487.1 | 1485 | 1481.8 | 1478.4 | 1469.4 | 1467.9
293.15 K | 1448.3 | 1457 | 1466.8 | 1470.5 | 1472.2 | 1470.8 | 1468.1 | – | – | –
298.15 K | 1430.9 | 1440 | 1450.5 | 1455 | 1457.3 | – | 1454.5 | 1452.5 | 1444.6 | –
303.15 K | 1414.1 | 1423.2 | 1434.3 | 1439.6 | 1442.5 | 1442.7 | 1441.2 | 1439.1 | – | 1431.2
308.15 K | 1397.3 | 1406.5 | 1418.1 | 1424.2 | 1427.7 | – | 1427.8 | 1426.1 | 1420.7 | 1419.5
313.15 K | – | – | 1402.2 | 1409 | 1413.1 | 1415 | 1414.5 | 1413.5 | – | 1408
318.15 K | 1363.8 | 1373.6 | 1386.2 | 1393.8 | 1398.8 | 1401.1 | 1401.5 | 1400.7 | 1397.8 | 1396.6
